Strand notation (5' to 3'): a small letter for the sugar, then the base; units joined by * are phosphorothioate-linked, units joined directly phosphodiester-linked; [ ] holds rarer units or linkages, { } end groups; capitals alone tell only the bases. e = 2'-O-(2-methoxyethyl) (MOE); l = locked nucleic acid (LNA); [5mC] = 5-methylcytosine; d = 2'-deoxy (DNA)
Tested on: human ABCB11 mRNA
Assay: ASO treatment of primary human hepatocytes (PHH), ABCB11 mRNA by RT-qPCR normalized to B2M
Type: cell-based
Details: PHHs, 5 μM dose (FIG. 14)
Procedure, shortened: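 ABCB11 mRNA was quantified by Taqman RT-qPCR relative to B2M and expressed as fold over untreated cells. Cells were cryopreserved primary human hepatocytes given ASO in Matrigel-supplemented medium 4 h after plating, at 1.25, 2.5, 5 or 10 μM (5 μM for screening), and harvested after 72 hrs.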

Substance	ABCB11 mRNA fold change
CO-11202: ASO containing PO-modifications identified in the Table 13 screen in PHHs (antisense eT*eG*eTeT*eT*eT*eG*e[5mC]eT*eT*eG*eG*eTe[5mC]*eA*eA*eG*eAeG*eG)	~2 fold

Same assay, conditions: PHHs, 10 μM dose (FIG. 14)

Substance	ABCB11 mRNA fold change
CO-11202: ASO containing PO-modifications identified in the Table 13 screen in PHHs (antisense eT*eG*eTeT*eT*eT*eG*e[5mC]eT*eT*eG*eG*eTe[5mC]*eA*eA*eG*eAeG*eG)	~3.5 fold

Same assay, conditions: PHHs, comparison study with OCA, elafibranor, fenofibrate (FIG. 14)

Substance	ABCB11 mRNA expression, dose response
CO-11202: ASO containing PO-modifications identified in the Table 13 screen in PHHs (antisense eT*eG*eTeT*eT*eT*eG*e[5mC]eT*eT*eG*eG*eTe[5mC]*eA*eA*eG*eAeG*eG)	dose-dependent increase

Same assay, conditions: primary human hepatocytes, 5 μM ASO with PO-modifications, normalized to untreated hepatocytes

Substance	ABCB11 FC mRNA (5 μM ASO vs. untreated)
CO-11198 (antisense eT*eG*eT*eT*eTeTeG*e[5mC]*eT*eT*eG*eG*eT*e[5mC]eAeA*eG*eA*eG*eG)	0.97 fold change
CO-11199 (antisense eT*eG*eT*eTeTeTeG*e[5mC]*eT*eT*eG*eG*eT*e[5mC]eAeAeG*eA*eG*eG)	0.97 fold change
CO-11200 (antisense eT*eG*eTeTeTeTeG*e[5mC]*eT*eT*eG*eG*eT*e[5mC]eAeAeGeA*eG*eG)	1.34 fold change
CO-11201 (antisense eT*eGeTeTeTeTeG*e[5mC]*eT*eT*eG*eG*eT*e[5mC]eAeAeGeAeG*eG)	0.99 fold change
CO-11202: ASO containing PO-modifications identified in the Table 13 screen in PHHs (antisense eT*eG*eTeT*eT*eT*eG*e[5mC]eT*eT*eG*eG*eTe[5mC]*eA*eA*eG*eAeG*eG)	1.50 fold change
CO-11203 (antisense eT*eG*eT*eTeT*eT*eG*e[5mC]eT*eT*eG*eGeT*e[5mC]*eA*eAeG*eA*eG*eG)	1.38 fold change
CO-11204 (antisense eT*eG*eT*eT*eTeT*eG*e[5mC]*eTeT*eG*eG*eTe[5mC]*eA*eA*eGeA*eG*eG)	1.15 fold change
CO-11205 (antisense eT*eGeT*eT*eT*eTeG*e[5mC]*eT*eTeG*eG*eT*e[5mC]eA*eA*eG*eAeG*eG)	1.11 fold change
CO-11206 (antisense eT*eGeT*eT*eTeT*eG*e[5mC]eT*eT*eGeG*eT*e[5mC]eA*eA*eGeA*eG*eG)	1.02 fold change
CO-11207 (antisense eT*eG*eTeT*eT*eTeG*e[5mC]*eTeT*eG*eGeT*e[5mC]*eAeA*eG*eAeG*eG)	0.91 fold change
CO-11208 (antisense eT*eG*eTeT*eTeT*eGe[5mC]*eTeT*eGeG*eTe[5mC]*eAeA*eGeA*eG*eG)	1.04 fold change
CO-11209 (antisense eT*eGeT*eTeT*eTeG*e[5mC]eT*eTeG*eGeT*e[5mC]eA*eAeG*eAeG*eG)	1.11 fold change
CO-11210 (antisense eG*eT*lG*eG*lAeGl[5mC]*eA*lA*eA*l[5mC]*eT*lA*eGlGe[5mC]*lA*e[5mC]*eT*eG)	2.79 fold change
CO-11211 (antisense eG*eT*lG*eGlAeGl[5mC]*eA*lA*eA*l[5mC]*eT*lA*eGlGe[5mC]lA*e[5mC]*eT*eG)	2.80 fold change
CO-11212 (antisense eG*eT*lGeGlAeGl[5mC]*eA*lA*eA*l[5mC]*eT*lA*eGlGe[5mC]lAe[5mC]*eT*eG)	2.44 fold change
CO-11213 (antisense eG*eTlGeGlAeGl[5mC]*eA*lA*eA*l[5mC]*eT*lA*eGlGe[5mC]lAe[5mC]eT*eG)	1.95 fold change
CO-11214 (antisense eG*eT*lGeG*lA*eG*l[5mC]*eAlA*eA*l[5mC]*eT*lAeG*lG*e[5mC]*lA*e[5mC]eT*eG)	2.90 fold change
CO-11215 (antisense eG*eT*lG*eGlA*eG*l[5mC]*eAlA*eA*l[5mC]*eTlA*eG*lG*e[5mC]lA*e[5mC]*eT*eG)	2.68 fold change
CO-11216 (antisense eG*eT*lG*eG*lAeG*l[5mC]*eA*lAeA*l[5mC]*eT*lAeG*lG*e[5mC]*lAe[5mC]*eT*eG)	2.58 fold change
CO-11217 (antisense eG*eTlG*eG*lA*eGl[5mC]*eA*lA*eAl[5mC]eT*lA*eGlG*e[5mC]*lA*e[5mC]eT*eG)	2.10 fold change
CO-11218 (antisense eG*eTlG*eG*lAeG*l[5mC]*eAlA*eA*l[5mC]eT*lA*eGlG*e[5mC]*lAe[5mC]*eT*eG)	2.86 fold change
CO-11219 (antisense eG*eT*lGeG*lA*eGl[5mC]*eA*lAeA*l[5mC]*eTlA*eG*lGe[5mC]*lA*e[5mC]eT*eG)	2.45 fold change
CO-11220 (antisense eG*eT*lGeG*lAeG*l[5mC]eA*lAeA*l[5mC]eT*lAeG*lGe[5mC]*lAe[5mC]*eT*eG)	2.22 fold change
CO-11221 (antisense eG*eTlG*eGlA*eGl[5mC]*eAlA*eAl[5mC]*eTlA*eGlG*e[5mC]lA*e[5mC]eT*eG)	2.00 fold change
CO-11222 (antisense eG*eT*lG*eG*eAlGe[5mC]*eA*lA*eA*e[5mC]*lT*eA*eGlGe[5mC]*eA*l[5mC]*eT*eG)	1.79 fold change
CO-11223 (antisense eG*eT*lG*eGeAlGe[5mC]*eA*lA*eA*e[5mC]*lT*eA*eGlGe[5mC]eA*l[5mC]*eT*eG)	1.80 fold change

Same assay, conditions: primary human hepatocytes, 5 μM ASO, normalized to untreated PHHs (UNT)

Substance	ABCB11 mRNA FC (5 μM ASO vs. UNT)
CO-7189: derivative ASO with additional chemical modifications based on parent ASO CO-4535 (antisense eT*eG*lG*e[5mC]*lG*eT*lT*eA*lT*eT*lA*eA*lT*eT*l[5mC]*eT*lA*e[5mC]*eA*eG)	1.487 fold change
CO-7190: derivative ASO with additional chemical modifications based on parent ASO CO-4535 (antisense eT*eG*lG*e[5mC]*eG*lT*eT*eA*lT*eT*eA*lA*eT*eT*l[5mC]*eT*eA*l[5mC]*eA*eG)	1.641 fold change
CO-7191: derivative ASO with additional chemical modifications based on parent ASO CO-4535 (eT*eG*eG*e[5mC]*lG*eT*eT*eA*lT*eT*eA*eA*lT*eT*e[5mC]*eT*lA*e[5mC]*eA*eG)	1.676 fold change
CO-7192 (eT*eG*eG*l[5mC]*eG*eT*eT*lA*eT*eT*eA*lA*eT*eT*e[5mC]*lT*eA*e[5mC]*eA*eG; antisense)	1.591 fold change
CO-7193: derivative ASO with additional chemical modifications based on parent ASO CO-4535 (eT*eG*eG*e[5mC]*eG*lT*eT*eA*eT*eT*lA*eA*eT*eT*e[5mC]*lT*eA*e[5mC]*eA*eG)	1.555 fold change
CO-7195 (eG*eG*eT*eG*eG*eA*dG*d[5mC]*dA*dA*dA*d[5mC]*dT*dA*dG*dG*e[5mC]*eA*e[5mC]*eT*eG*eA; antisense)	1.443 fold change
CO-7196 (eG*eG*eT*eG*eG*eA*eG*e[5mC]*eA*eA*eA*e[5mC]*eT*eA*eG*eG*e[5mC]*eA*e[5mC]*eT*eG*eA; antisense)	1.33 fold change
CO-7197 (eG*eG*eT*eG*eG*dA*dG*d[5mC]*eA*dA*dA*d[5mC]*dT*eA*dG*dG*d[5mC]*eA*e[5mC]*eT*eG*eA; antisense)	1.364 fold change
CO-7198 (eG*eG*eT*eG*eG*lA*dG*d[5mC]*lA*dA*dA*d[5mC]*dT*lA*dG*dG*l[5mC]*eA*e[5mC]*eT*eG*eA; antisense)	1.075 fold change
CO-7199 (eA*eG*eG*eT*eG*eG*eA*dG*d[5mC]*dA*dA*dA*d[5mC]*dT*dA*dG*dG*e[5mC]*eA*e[5mC]*eT*eG*eA*eG; antisense)	1.166 fold change
CO-7200 (eA*eG*eG*eT*eG*eG*eA*eG*e[5mC]*eA*eA*eA*e[5mC]*eT*eA*eG*eG*e[5mC]*eA*e[5mC]*eT*eG*eA*eG; antisense)	1.277 fold change
CO-7201 (eA*eG*eG*eT*eG*dG*dA*eG*d[5mC]*dA*eA*dA*d[5mC]*eT*dA*dG*eG*d[5mC]*dA*e[5mC]*eT*eG*eA*eG; antisense)	1.253 fold change
CO-7205 (eT*eT*eG*eG*e[5mC]*dG*dT*dT*eA*dT*dT*dA*dA*eT*dT*d[5mC]*dT*eA*e[5mC]*eA*eG*eA; antisense)	1.278 fold change
CO-7206 (eT*eT*eG*eG*e[5mC]*lG*dT*dT*lA*dT*dT*dA*dA*lT*dT*d[5mC]*lT*eA*e[5mC]*eA*eG*eA; antisense)	1.164 fold change
CO-7207 (eT*eT*eT*eG*eG*e[5mC]*eG*dT*dT*dA*dT*dT*dA*dA*dT*dT*d[5mC]*eT*eA*e[5mC]*eA*eG*eA*eG; antisense)	1.221 fold change
CO-7208 (eT*eT*eT*eG*eG*e[5mC]*eG*eT*eT*eA*eT*eT*eA*eA*eT*eT*e[5mC]*eT*eA*e[5mC]*eA*eG*eA*eG; antisense)	1.339 fold change
CO-7209 (eT*eT*eT*eG*eG*d[5mC]*dG*eT*dT*dA*eT*dT*dA*eA*dT*dT*e[5mC]*dT*dA*e[5mC]*eA*eG*eA*eG; antisense)	1.262 fold change
CO-7210 (eT*eT*eT*eG*eG*d[5mC]*dG*lT*dT*dA*lT*dT*dA*lA*dT*dT*l[5mC]*dT*dA*e[5mC]*eA*eG*eA*eG; antisense)	1.362 fold change
